This note sets out measurements from patent publication US9765075B2, “Substituted bridged urea analogs as sirtuin modulators” (GLAXOSMITHKLINE LLC, priority 2013, dated 2017).

SMILES strings stand for the structures. Bounds are passed on as bounds.

This assay concerns the target T1, SIRT1 (Homo sapiens, UniProt Q96EB6).
T1 sequence (Q96EB6 1-747): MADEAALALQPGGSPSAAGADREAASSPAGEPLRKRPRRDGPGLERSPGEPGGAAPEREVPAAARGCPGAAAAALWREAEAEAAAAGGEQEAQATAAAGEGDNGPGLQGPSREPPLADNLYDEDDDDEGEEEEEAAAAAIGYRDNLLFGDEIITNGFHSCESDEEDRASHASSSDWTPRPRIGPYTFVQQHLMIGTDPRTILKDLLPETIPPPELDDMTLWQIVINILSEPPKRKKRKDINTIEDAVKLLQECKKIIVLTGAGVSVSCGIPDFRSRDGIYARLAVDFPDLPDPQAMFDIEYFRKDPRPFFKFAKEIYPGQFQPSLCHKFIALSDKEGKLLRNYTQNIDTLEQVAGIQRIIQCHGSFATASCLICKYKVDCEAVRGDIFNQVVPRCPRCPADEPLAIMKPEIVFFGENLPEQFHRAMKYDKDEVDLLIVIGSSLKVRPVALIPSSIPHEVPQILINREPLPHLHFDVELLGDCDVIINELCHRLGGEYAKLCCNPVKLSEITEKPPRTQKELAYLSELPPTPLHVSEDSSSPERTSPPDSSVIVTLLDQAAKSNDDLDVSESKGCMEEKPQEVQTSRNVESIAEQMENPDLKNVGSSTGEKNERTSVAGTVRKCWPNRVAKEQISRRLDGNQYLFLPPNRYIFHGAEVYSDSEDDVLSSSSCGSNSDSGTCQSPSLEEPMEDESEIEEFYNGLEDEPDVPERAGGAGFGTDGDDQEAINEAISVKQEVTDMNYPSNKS
Kind of assay: Trp mass spectrometry assay (SIRT1 activation). The assay is classed as biochemical. Particulars: Trp peptide substrate; for Tryp AVG EC1.5 (μM): concentration of test compound that results in 150% activation of SIRT1; for Emax: percent maximum fold activation of SIRT1, read-out: Tryp % Fold Act. A digest of the protocol:
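N-His-tagged SIRT1 (10 nM), expressed in E. coli, was incubated with 0.5 μM Ac-RHKK(Ac)W-NH2 peptide and 120 μM NAD+ for 25 min at 25 °C in HEPES pH 7.5 with […]. The reaction was stopped with formic acid and O-acetyl-ADP-ribose or deacetylated peptide was quantified by mass spectrometry. Results are given as EC1.5 and percent maximal activation relative to DMSO control.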

Consider `O=C(Nc1cncc(F)c1)N1c2nc(-c3cccc(Cl)c3)ccc2N2CCC1CC2` [Example 521], for which the “Tryp AVG EC1.5 (μM)” value is “B (EC1.5 1-25 μM)” and the Emax was ≥ 150%.

Turning to `COc1cc(NC(=O)N2c3nc(-c4cccc(Cl)c4)ccc3N3CCC2CC3)ncn1` [Example 522], the “Tryp AVG EC1.5 (μM)” value was “B (EC1.5 1-25 μM)” and the Emax is ≥ 150%.

Regarding `COc1cc(NC(=O)N2c3nc(-c4cccc(Cl)c4)ccc3N3CCC2CC3)nc(OC)n1` [Example 523], the “Tryp AVG EC1.5 (μM)” value is recorded as “A (EC1.5<1 μM)” and the Emax was ≥ 150%.

As for `Cn1nccc1-c1ccc2c(n1)N(C(=O)Nc1cccnc1)[C@H]1CCN2C1` [Example 524], the “Tryp AVG EC1.5 (μM)” value was “B (EC1.5 1-25 μM)” and the Emax was ≥ 150%.

As for `Cc1n[nH]c(C)c1-c1ccc2c(n1)N(C(=O)Nc1cccnc1)[C@H]1CCN2C1` [Example 525], the “Tryp AVG EC1.5 (μM)” value is reported as “B (EC1.5 1-25 μM)” and the Emax is ≥ 150%.

On to `O=C(Nc1cccnc1)N1c2nc(-c3cncc(Cl)c3)ccc2N2CC[C@H]1C2` [Example 526], for which the “Tryp AVG EC1.5 (μM)” value is reported as “A (EC1.5<1 μM)” and the Emax is ≥ 150%.

For the compound `COc1cc(NC(=O)N2c3nc(-c4cccc(N5CCOCC5)c4)ccc3N3CCC[C@H]2C3)ncn1` [Example 528], the “Tryp AVG EC1.5 (μM)” value was “B (EC1.5 1-25 μM)” and the Emax was ≥ 150%.

For the compound `O=C(Nc1ccncn1)N1c2nc(-c3cccc(N4CCOCC4)c3)ccc2N2CCC[C@H]1C2` [Example 529], the “Tryp AVG EC1.5 (μM)” value was “B (EC1.5 1-25 μM)” and the Emax is ≥ 150%.

Consider `O=C1C=CC2=C(c3ccc(NC(=S)NCc4ccc(NC(=O)N5c6nc(-c7cccc(C(F)(F)F)c7)ccc6N6CC[C@H]5C6)cc4)cc3C(=O)O)C3C=CC(O)=CC3OC2=C1` (stereo partly shown) [Example 530], for which the “Tryp AVG EC1.5 (μM)” value was “A (EC1.5<1 μM)” and the Emax was ≥ 150%.

For the compound `Cc1c(-c2ccc3c(n2)N(C(=O)Nc2ccccn2)[C@H]2CCN3C2)cnn1C` [Example 531], the “Tryp AVG EC1.5 (μM)” value is given as “B (EC1.5 1-25 μM)” and the Emax was ≥ 150%.

As for `Cc1c(-c2ccc3c(n2)N(C(=O)Nc2cnccn2)[C@H]2CCN3C2)cnn1C` [Example 532], the “Tryp AVG EC1.5 (μM)” value is “B (EC1.5 1-25 μM)” and the Emax was ≥ 150%.

For `O=C(Nc1ccccn1)N1c2nc(-c3cccc(Cl)c3)ccc2N2CCC1CC2` [Example 533], the “Tryp AVG EC1.5 (μM)” value is “B (EC1.5 1-25 μM)” and the Emax is ≥ 150%.

Consider `O=C(Nc1ccncn1)N1c2nc(-c3cccc(Cl)c3)ccc2N2CCC1CC2` [Example 534], for which the “Tryp AVG EC1.5 (μM)” value was “B (EC1.5 1-25 μM)” and the Emax was ≥ 150%.

Turning to `N#Cc1cncc(-c2ccc3c(n2)N(C(=O)Nc2cncc(F)c2)[C@H]2CCCN3C2)c1` [Example 535], the “Tryp AVG EC1.5 (μM)” value was “B (EC1.5 1-25 μM)” and the Emax was ≥ 150%.

For the compound `O=C(Nc1ccccn1)N1c2nc(-c3cccc(N4CCOCC4)c3)ccc2N2CCC[C@H]1C2` [Example 536], the “Tryp AVG EC1.5 (μM)” value was “B (EC1.5 1-25 μM)” and the Emax is ≥ 150%.

For `Cc1nc(NC(=O)N2c3nc(-c4cccc(N5CCOCC5)c4)ccc3N3CCC[C@H]2C3)sc1C` [Example 537], the “Tryp AVG EC1.5 (μM)” value is on record as “B (EC1.5 1-25 μM)” and the Emax was ≥ 150%.

With `O=C(Nc1cccnc1)N1c2nc(-c3cccc(N4CCOCC4)c3)ccc2N2CCC[C@H]1C2` [Example 538], the “Tryp AVG EC1.5 (μM)” value is listed as “A (EC1.5<1 μM)” and the Emax was ≥ 150%.

Regarding `O=C(Nc1cccnn1)N1c2nc(-c3cccc(N4CCOCC4)c3)ccc2N2CCC[C@H]1C2` [Example 539], the “Tryp AVG EC1.5 (μM)” value was “B (EC1.5 1-25 μM)” and the Emax was ≥ 150%.

As for `Cc1cc(NC(=O)N2c3nc(-c4cccc(C(F)(F)F)c4)ccc3N3CC[C@H]2C3)cc(Br)n1` [Example 540], the “Tryp AVG EC1.5 (μM)” value is on record as “A (EC1.5<1 μM)” and the Emax is ≥ 150%.

For `O=C(Nc1ccnc(Br)c1)N1c2nc(-c3cccc(C(F)(F)F)c3)ccc2N2CC[C@H]1C2` [Example 541], the “Tryp AVG EC1.5 (μM)” value is “A (EC1.5<1 μM)” and the Emax was ≥ 150%.
